# Biological target: HAT p300 (histone acetyltransferase p300) (Homo sapiens, UniProt Q09472)
# Test: HAT activity kit assay (Biovision K332), inhibition of HAT activity of p300
# Assay type: biochemical
# Conditions: for HAT p300 activity inhibitory effect: diluted to 100 μM, FIG. 9
# Procedure: Candidates 1 to 67, which are HAT inhibitors manufactured based on the PCAF structure, and HAT-24, HAT-26, and HAT-28 were diluted to 100 μM, and the degree of inhibition of HAT activity of p300 (inhibitory activity) was then determined using a kit for measuring HAT activity (Biovision, Cat No. K332, U.S.A) according to the method provided by the manufacturer. Here, the tissue was treated with C646 (HAT inhibitor) as a positive control.
# Candidates 1 to 14 having a good HAT activity inhibitory effect in Section were diluted to concentrations of 0.5 μM, 1 μM, 10 μM, and 100 μM. Thereafter, the degree of inhibition of HAT activity was determined in the same manner as in Section.
# Synthesis Examples 1 to 19 were diluted to 100 μM, and the degree of inhibition of HAT p300 activity was then determined in the same manner as in Section. Here, the tissues were treated with C646 and Candidate 12 (HAT-12) as the control, instead of Synthesis Examples 1 to 19.
# Sequence of HAT p300 (histone acetyltransferase p300) (Q09472 whole entry): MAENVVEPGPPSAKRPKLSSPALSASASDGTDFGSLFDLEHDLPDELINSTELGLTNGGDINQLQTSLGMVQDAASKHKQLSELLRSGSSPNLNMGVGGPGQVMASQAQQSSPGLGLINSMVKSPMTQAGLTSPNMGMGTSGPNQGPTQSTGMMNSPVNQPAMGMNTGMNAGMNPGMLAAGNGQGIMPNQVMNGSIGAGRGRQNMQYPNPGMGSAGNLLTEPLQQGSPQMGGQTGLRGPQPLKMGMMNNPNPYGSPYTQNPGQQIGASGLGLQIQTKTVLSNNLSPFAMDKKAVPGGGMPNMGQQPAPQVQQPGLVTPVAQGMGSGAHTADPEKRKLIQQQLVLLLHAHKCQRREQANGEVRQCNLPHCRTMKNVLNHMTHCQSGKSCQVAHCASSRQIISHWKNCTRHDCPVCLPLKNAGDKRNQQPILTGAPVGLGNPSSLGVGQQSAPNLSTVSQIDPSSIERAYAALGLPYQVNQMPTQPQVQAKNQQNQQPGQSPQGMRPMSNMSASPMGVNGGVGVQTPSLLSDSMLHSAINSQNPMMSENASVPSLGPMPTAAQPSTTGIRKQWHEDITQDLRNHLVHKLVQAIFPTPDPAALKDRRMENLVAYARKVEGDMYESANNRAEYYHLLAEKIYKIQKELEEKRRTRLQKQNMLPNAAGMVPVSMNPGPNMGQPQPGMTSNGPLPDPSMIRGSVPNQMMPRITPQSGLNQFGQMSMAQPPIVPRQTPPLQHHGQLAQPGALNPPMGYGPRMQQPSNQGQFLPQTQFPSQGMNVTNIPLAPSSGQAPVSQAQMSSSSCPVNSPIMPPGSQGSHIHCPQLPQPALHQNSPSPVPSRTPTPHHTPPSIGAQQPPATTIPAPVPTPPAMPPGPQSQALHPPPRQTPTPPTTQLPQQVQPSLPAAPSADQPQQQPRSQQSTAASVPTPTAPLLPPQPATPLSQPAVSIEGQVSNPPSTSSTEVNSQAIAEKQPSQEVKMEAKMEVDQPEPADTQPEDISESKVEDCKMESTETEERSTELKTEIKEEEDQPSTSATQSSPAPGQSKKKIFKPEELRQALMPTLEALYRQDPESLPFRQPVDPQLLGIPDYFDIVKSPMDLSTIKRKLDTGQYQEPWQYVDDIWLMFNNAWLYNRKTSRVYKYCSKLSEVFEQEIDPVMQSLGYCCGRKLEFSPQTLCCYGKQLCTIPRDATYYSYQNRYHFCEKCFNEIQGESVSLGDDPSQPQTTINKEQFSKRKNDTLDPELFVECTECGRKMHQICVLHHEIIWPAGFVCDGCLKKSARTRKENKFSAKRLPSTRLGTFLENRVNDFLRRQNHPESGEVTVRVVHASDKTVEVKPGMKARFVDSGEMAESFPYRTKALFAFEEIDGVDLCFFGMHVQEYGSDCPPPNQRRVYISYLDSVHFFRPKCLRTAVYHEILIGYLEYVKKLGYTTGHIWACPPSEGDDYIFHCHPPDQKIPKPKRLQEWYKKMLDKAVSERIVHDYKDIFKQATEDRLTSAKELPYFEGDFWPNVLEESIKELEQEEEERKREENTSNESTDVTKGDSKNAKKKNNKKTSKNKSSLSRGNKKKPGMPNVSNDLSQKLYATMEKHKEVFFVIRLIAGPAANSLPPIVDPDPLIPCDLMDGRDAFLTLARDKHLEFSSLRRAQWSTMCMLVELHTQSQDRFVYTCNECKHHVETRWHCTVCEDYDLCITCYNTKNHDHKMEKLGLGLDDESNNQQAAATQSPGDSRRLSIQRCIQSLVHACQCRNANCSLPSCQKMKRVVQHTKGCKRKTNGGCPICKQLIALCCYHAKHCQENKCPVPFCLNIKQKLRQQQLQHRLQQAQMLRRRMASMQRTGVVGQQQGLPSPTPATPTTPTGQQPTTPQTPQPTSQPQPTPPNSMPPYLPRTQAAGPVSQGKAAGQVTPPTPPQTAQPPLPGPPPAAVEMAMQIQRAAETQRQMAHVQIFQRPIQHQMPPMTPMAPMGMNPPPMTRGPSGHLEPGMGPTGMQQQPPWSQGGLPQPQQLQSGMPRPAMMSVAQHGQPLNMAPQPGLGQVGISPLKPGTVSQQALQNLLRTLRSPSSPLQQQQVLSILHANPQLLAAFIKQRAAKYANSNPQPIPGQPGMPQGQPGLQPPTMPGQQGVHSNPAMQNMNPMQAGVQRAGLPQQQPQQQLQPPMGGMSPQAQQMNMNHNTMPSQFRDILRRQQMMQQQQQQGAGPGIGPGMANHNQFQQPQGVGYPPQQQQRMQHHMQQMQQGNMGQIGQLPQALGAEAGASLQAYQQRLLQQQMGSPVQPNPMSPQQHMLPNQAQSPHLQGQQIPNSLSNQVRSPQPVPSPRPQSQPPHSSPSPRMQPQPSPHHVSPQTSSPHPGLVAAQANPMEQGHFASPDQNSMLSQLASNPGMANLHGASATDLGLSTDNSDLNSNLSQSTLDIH
HAT p300 activity inhibitory effect,"IC50 (secondary screening, tested at 0.5, 1, 10 and 100 μM)",Structure (SMILES)
approximately 80%,0.953 µM,COc1cc(/C=N/CCN2CCCCC2)cc(Cl)c1OCc1cccc(Cl)c1 [Candidate 12]
≥ 90%,,"COc1cc(/C=N/Cc2ccc(C(=O)O)cc2)cc(Cl)c1OCc1cccc(Cl)c1 [Synthesis Example 19, (E)-4-(((3-chloro-4-((3-chlorobenzyl)oxy)-5-methoxybenzylidene)amino)methyl)benzoic acid]"
